The values that follow come from ChEMBL document CHEMBL1159053, “Synthesis and antifungal activities in vitro of novel pyrazino [2,1-a] isoquinolin derivatives” (2010).

≈ marks a conversion by molar mass, not a printed value.

Common to all, as to format: functional
One assay concerns Candida albicans. The experiment in a line: Antifungal activity against Candida albicans by serial dilution method.
Another assay deals with Aspergillus fumigatus. The experiment in a line: Antifungal activity against Aspergillus fumigatus by serial dilution method.
A further assay has as its system Trichophyton rubrum. The assay is described as follows: Antifungal activity against Trichophyton rubrum by serial dilution method.
Another assay concerns Nannizzia gypsea. The experiment in a line: Antifungal activity against Microsporum gypseum by serial dilution method.
A further assay relates to Cryptococcus neoformans. The assay is described as follows: Antifungal activity against Cryptococcus neoformans by serial dilution method.

What is called MIC80 is the lowest concentration that inhibits either 80% of growth or 80% of the strains tested, depending on the study. In the case of `CCCCCCCCCCN1CCc2cc(O)c(O)cc2C1`, the MIC80 amounted to 64 µg/mL (≈ 210 µM) with Candida albicans; 64 µg/mL (≈ 210 µM) with Aspergillus fumigatus; 32 µg/mL (≈ 105 µM) against Trichophyton rubrum; 16 µg/mL (≈ 52.4 µM) in the assay on Nannizzia gypsea; 16 µg/mL (≈ 52.4 µM) in the assay with Cryptococcus neoformans.
As to `CCCCN1CCN2CCc3ccc(F)cc3C2C1` (stereo not given), the MIC80 in the assay with Candida albicans is 64 µg/mL (≈ 244 µM); against Aspergillus fumigatus it was over 64 µg/mL; with Trichophyton rubrum it was over 64 µg/mL; against Nannizzia gypsea it was 4 µg/mL (≈ 15.2 µM); in the assay with Cryptococcus neoformans, over 64 µg/mL.
For the molecule `CCCCCCCCN1CC(=O)N2CCc3ccc(F)cc3C2C1` (stereo not given), the MIC80 against Candida albicans is over 64 µg/mL; against Aspergillus fumigatus, 32 µg/mL (≈ 96.3 µM); with Trichophyton rubrum, 16 µg/mL (≈ 48.1 µM); against Nannizzia gypsea, 16 µg/mL (≈ 48.1 µM); in the assay on Cryptococcus neoformans, 16 µg/mL (≈ 48.1 µM).
In the case of `CCCCN1CC(=O)N2CCc3cc(OC)c(OC)cc3C2C1` (stereo not given), the MIC80 was over 64 µg/mL against Candida albicans; over 64 µg/mL against Aspergillus fumigatus; over 64 µg/mL in the assay on Trichophyton rubrum; over 64 µg/mL against Nannizzia gypsea; 16 µg/mL (≈ 50.2 µM) in the assay with Cryptococcus neoformans.
Take `CCCCN1CC(=O)N2CCc3ccc(F)cc3C2C1` (stereo not given): the MIC80 is over 64 µg/mL in the assay on Candida albicans; over 64 µg/mL against Aspergillus fumigatus; 64 µg/mL (≈ 232 µM) in the assay on Trichophyton rubrum; over 64 µg/mL against Nannizzia gypsea; 32 µg/mL (≈ 116 µM) against Cryptococcus neoformans.
As to `CCCCCCCCN1CCN2CCc3cc(O)c(O)cc3C2C1` (stereo not given), the MIC80 came out at 16 µg/mL (≈ 48.1 µM) in the assay on Candida albicans; 64 µg/mL (≈ 192 µM) against Aspergillus fumigatus; 16 µg/mL (≈ 48.1 µM) with Trichophyton rubrum; 32 µg/mL (≈ 96.2 µM) with Nannizzia gypsea; 2 µg/mL (≈ 6.02 µM) against Cryptococcus neoformans.
Regarding `CCCCCCCCCN1CC(=O)N2CCc3cc(OC)c(OC)cc3C2C1` (stereo not given), the MIC80 in the assay on Candida albicans amounted to 64 µg/mL (≈ 165 µM); in the assay with Aspergillus fumigatus it was 32 µg/mL (≈ 82.4 µM); with Trichophyton rubrum, 32 µg/mL (≈ 82.4 µM); in the assay on Nannizzia gypsea it was 2 µg/mL (≈ 5.15 µM); against Cryptococcus neoformans, 4 µg/mL (≈ 10.3 µM).
Regarding `CCCCCCCCN1CCN2CCc3cc(OC)c(OC)cc3C2C1` (stereo not given), the MIC80 against Candida albicans was 32 µg/mL (≈ 88.8 µM); with Aspergillus fumigatus, 8 µg/mL (≈ 22.2 µM); in the assay on Trichophyton rubrum, 16 µg/mL (≈ 44.4 µM); against Nannizzia gypsea it was 4 µg/mL (≈ 11.1 µM); in the assay on Cryptococcus neoformans, 8 µg/mL (≈ 22.2 µM).
Consider `CCCCCCCCN1CCN2CCc3ccc(F)cc3C2C1` (stereo not given), for which the MIC80 came to 16 µg/mL (≈ 50.2 µM) against Candida albicans; 32 µg/mL (≈ 100 µM) with Aspergillus fumigatus; 8 µg/mL (≈ 25.1 µM) in the assay on Trichophyton rubrum; 4 µg/mL (≈ 12.6 µM) with Nannizzia gypsea; 4 µg/mL (≈ 12.6 µM) in the assay with Cryptococcus neoformans.
Take `CCCCCCCCCN1CCN2CCc3cc(O)c(O)cc3C2C1` (stereo not given): the MIC80 with Candida albicans worked out at 8 µg/mL (≈ 23.1 µM); with Aspergillus fumigatus it was 64 µg/mL (≈ 185 µM); in the assay with Trichophyton rubrum it was 8 µg/mL (≈ 23.1 µM); against Nannizzia gypsea, 8 µg/mL (≈ 23.1 µM); against Cryptococcus neoformans, 4 µg/mL (≈ 11.5 µM).
Regarding `CCCCCCCCCCCCN1CC(=O)N2CCc3cc(OC)c(OC)cc3C2C1` (stereo not given), the MIC80 against Candida albicans is over 64 µg/mL; against Aspergillus fumigatus, over 64 µg/mL; in the assay on Trichophyton rubrum, over 64 µg/mL; with Nannizzia gypsea, 64 µg/mL (≈ 149 µM); against Cryptococcus neoformans, 32 µg/mL (≈ 74.3 µM).
In the case of `CCCCN1CCN2CCc3cc(O)c(O)cc3C2C1` (stereo not given), the MIC80 in the assay with Candida albicans is over 64 µg/mL; against Aspergillus fumigatus it was over 64 µg/mL; against Trichophyton rubrum, over 64 µg/mL; in the assay on Nannizzia gypsea it was over 64 µg/mL; in the assay with Cryptococcus neoformans, 4 µg/mL (≈ 14.5 µM).
`CCCCCCCCN1CC(=O)N2CCc3cc(OC)c(OC)cc3C2C1` (stereo not given): the MIC80 against Candida albicans worked out at 16 µg/mL (≈ 42.7 µM); with Aspergillus fumigatus, 64 µg/mL (≈ 171 µM); in the assay on Trichophyton rubrum it was 32 µg/mL (≈ 85.4 µM); in the assay on Nannizzia gypsea it was 8 µg/mL (≈ 21.4 µM); in the assay on Cryptococcus neoformans, 8 µg/mL (≈ 21.4 µM).
For the molecule `CCCCCCCCCN1CC(=O)N2CCc3ccc(F)cc3C2C1` (stereo not given), the MIC80 against Candida albicans was 32 µg/mL (≈ 92.4 µM); with Aspergillus fumigatus, 16 µg/mL (≈ 46.2 µM); in the assay with Trichophyton rubrum, 4 µg/mL (≈ 11.5 µM); with Nannizzia gypsea, 0.5 µg/mL (≈ 1.44 µM); in the assay on Cryptococcus neoformans it was 2 µg/mL (≈ 5.77 µM).
The matching figures for `CCCCCCCCCN1CCN2CCc3cc(OC)c(OC)cc3C2C1` (stereo not given): 32 µg/mL (≈ 85.4 µM), 8 µg/mL (≈ 21.4 µM), 8 µg/mL (≈ 21.4 µM), 2 µg/mL (≈ 5.34 µM) and 4 µg/mL (≈ 10.7 µM).
The matching figures for `CCCCCCCCCN1CCN2CCc3ccc(F)cc3C2C1` (stereo not given): 8 µg/mL (≈ 24.1 µM), 16 µg/mL (≈ 48.1 µM), 8 µg/mL (≈ 24.1 µM), 2 µg/mL (≈ 6.01 µM) and 4 µg/mL (≈ 12 µM).
Regarding `CCCCCCCCCCCCN1CCN2CCc3cc(OC)c(OC)cc3C2C1` (stereo not given), the MIC80 is over 64 µg/mL against Candida albicans; over 64 µg/mL in the assay on Aspergillus fumigatus; over 64 µg/mL with Trichophyton rubrum; 32 µg/mL (≈ 76.8 µM) in the assay on Nannizzia gypsea; 16 µg/mL (≈ 38.4 µM) in the assay on Cryptococcus neoformans.
On to `CCCCCCCCCCCCN1CCN2CCc3ccc(F)cc3C2C1` (stereo not given), for which the MIC80 in the assay on Candida albicans was over 64 µg/mL; with Aspergillus fumigatus, over 64 µg/mL; in the assay on Trichophyton rubrum it was 64 µg/mL (≈ 171 µM); in the assay on Nannizzia gypsea, 4 µg/mL (≈ 10.7 µM); in the assay on Cryptococcus neoformans it was 64 µg/mL (≈ 171 µM).
On to `CCCCCCCCCCCCN1CC(=O)N2CCc3ccc(F)cc3C2C1` (stereo not given), for which the MIC80 in the assay on Candida albicans is over 64 µg/mL; against Aspergillus fumigatus, 32 µg/mL (≈ 82.4 µM); in the assay on Trichophyton rubrum, 64 µg/mL (≈ 165 µM); with Nannizzia gypsea it was 64 µg/mL (≈ 165 µM); in the assay on Cryptococcus neoformans, over 64 µg/mL.
Take `CCCCCCCCCCCCN1CCN2CCc3cc(O)c(O)cc3C2C1` (stereo not given): the MIC80 in the assay with Candida albicans came to 64 µg/mL (≈ 165 µM); with Aspergillus fumigatus, 64 µg/mL (≈ 165 µM); against Trichophyton rubrum it was 16 µg/mL (≈ 41.2 µM); in the assay on Nannizzia gypsea it was 16 µg/mL (≈ 41.2 µM); with Cryptococcus neoformans, 16 µg/mL (≈ 41.2 µM).
As to `CCCCN1CCN2CCc3cc(OC)c(OC)cc3C2C1` (stereo not given), the MIC80 in the assay with Candida albicans, with Aspergillus fumigatus, against Trichophyton rubrum, in the assay on Nannizzia gypsea and in the assay on Cryptococcus neoformans was over 64 µg/mL in each case.
For the molecule `OC(Cn1cncn1)(Cn1cncn1)c1ccc(F)cc1F` [FLUCONAZOLE], the MIC80 with Candida albicans is 2 µg/mL (≈ 6.53 µM); in the assay with Aspergillus fumigatus, over 64 µg/mL; against Trichophyton rubrum it was 32 µg/mL (≈ 104 µM); against Nannizzia gypsea it was 2 µg/mL (≈ 6.53 µM); against Cryptococcus neoformans it was 4 µg/mL (≈ 13.1 µM).
